Measured values reported in US20020114868A1, “Highly soluble and stable nutritional compositions containing calcium and magnesium” (priority 1999, published 2002).
Like-named read-outs stand apart in the source and are kept apart here. Marks after values point to notes of the source that are not given here.

Details: 3.4 g calcium equivalent in 8 ounces deionized water at 68° F

What does the source list for `CC(O)C(=O)[O-].O=C([O-])[C@H](O)[C@@H](O)[C@H](O)[C@H](O)CO.[Ca+2]` [Gluconal ®, Calcium Gluconate Lactate]?
Dissolution Rates as % of Maximum Solubility (elapsed time 00:00.0 mm:ss.s): 0%; Dissolution Rates as % of Maximum Solubility (elapsed time 00:05.4 mm:ss.s): 10%; Dissolution Rates as % of Maximum Solubility (elapsed time 00:10.7 mm:ss.s): 20%; Dissolution Rates as % of Maximum Solubility (elapsed time 00:16.1 mm:ss.s): 30%; Dissolution Rates as % of Maximum Solubility (elapsed time 00:21.5 mm:ss.s): 50%; Dissolution Rates as % of Maximum Solubility (elapsed time 00:26.9 mm:ss.s): 55%; Dissolution Rates as % of Maximum Solubility (elapsed time 00:32.2 mm:ss.s): 45%; Dissolution Rates as % of Maximum Solubility (elapsed time 00:37.6 mm:ss.s): 58%; Dissolution Rates as % of Maximum Solubility (elapsed time 00:43.0 mm:ss.s): 63%; Dissolution Rates as % of Maximum Solubility (elapsed time 00:48.4 mm:ss.s): 66%; Dissolution Rates as % of Maximum Solubility (elapsed time 00:53.7 mm:ss.s): 71%; Dissolution Rates as % of Maximum Solubility (elapsed time 00:59.1 mm:ss.s): 71%; Dissolution Rates as % of Maximum Solubility (elapsed time 01:04.5 mm:ss.s): 77%; Dissolution Rates as % of Maximum Solubility (elapsed time 01:09.9 mm:ss.s): 77%; Dissolution Rates as % of Maximum Solubility (elapsed time 01:15.3 mm:ss.s): 80%; Dissolution Rates as % of Maximum Solubility (elapsed time 01:20.6 mm:ss.s): 83%; Dissolution Rates as % of Maximum Solubility (elapsed time 01:36.7 mm:ss.s): 85%; Dissolution Rates as % of Maximum Solubility (elapsed time 01:47.5 mm:ss.s): 85%; Dissolution Rates as % of Maximum Solubility (elapsed time 01:58.2 mm:ss.s): 86%; Dissolution Rates as % of Maximum Solubility (elapsed time 02:09.0 mm:ss.s): 88%; Dissolution Rates as % of Maximum Solubility (elapsed time 03:00.0 mm:ss.s): 98%; Dissolution Rates as % of Maximum Solubility (elapsed time 03:30.5 mm:ss.s): 94%; Dissolution Rates as % of Maximum Solubility (elapsed time 04:00.0 mm:ss.s): 99%; Dissolution Rates as % of Maximum Solubility (elapsed time 05:00.0 mm:ss.s): 99%; Dissolution Rates as % of Maximum Solubility (elapsed time 06:00.0 mm:ss.s): 99%; Dissolution Rates as % of Maximum Solubility (elapsed time 07:00.0 mm:ss.s): 99%***; Dissolution Rates as % of Maximum Solubility (elapsed time 101:26.0 mm:ss.s): 86%
